Series [1] deals with UMR 106 cells. Put plainly: Metabolism of 1α,25(OH)2-16-ene-D3 analogs into less polar fatty acid ester metabolites in bone cells. Type of series: in vitro ADME, rat. As to conditions: 10 μM analog incubated 24 h in UMR 106 cells; HPLC (FIG. 1). On the procedure: As described herein, various analogs of 1α,25(OH)2-D3, such as 1α,25(OH)2-16-ene-D3 analogs are metabolized into less polar metabolites in the rat osteosarcoma cell line UMR 106. UMR 106 cells were cultured in an humidified atmosphere at 37° C. in 95% air and 5% CO2. MacCoy's culture medium, containing 10% fetal calf serum (FCS), antibiotics (100 IU/mL penicillin and 100 μg/mL streptomycin) and […], was used. Cells became confluent ten days after seeding, and were then incubated with analog. Samples (structures shown in Table 2) of 1α,25(OH)2-16-ene-D3, 1α,25(OH)2-16-ene-3-epi-D3, 1α,25(OH)2-16-ene-20-epi-D3, 1α,25(OH)2-16-ene-20-epi-3-epi-D3, and 1α,25(OH)2-16-ene-23-yne-D3 were dissolved in ethanol to a final concentration of 10 μM and incubated in 50 mL for 24 h. Each analog was incubated in three culture bottles. Incubation was stopped by adding 10 mL methanol to each culture bottle. Culture bottles were stored at −20° C.
Lipid extraction was initiated by first adding two volumes of methanol to each culture bottle from Example I. The protein precipitate was separated from the supernatant by centrifugation at 3000 rpm at 4° C. for 15 min. The supernatant was mixed with four volumes of dichloromethane in a separatory funnel. The lower organic phase was collected and dried under nitrogen gas at 50° C. After reconstitution in 10% isopropanol/hexane, the lipid extract was analyzed by high-performance liquid chromatography (HPLC).
HPLC was performed with a Waters System Controller (Model 600E) equipped with a photodiode array detector (Model PDA 990) to monitor UV absorption at 265 nm. A Zorbax SIL 9.4×250 mm column (DuPont, Wilmington, Del.) was used for all straight phase systems. The corresponding analog was added to each lipid extract and the solutions were then subjected to a straight phase HPLC system using 10% isopropanol/hexane at a flow rate of 2 mL/min. (HPLC system I). Fractions were collected from 0 min. to 12 min. These fractions were further subjected to a straight phase HPLC system using 2% isopropanol/hexane at a flow rate of 2 mL/min. (HPLC system II).

Series [2] relates to UMR 106 cells. As to the kind of experiment: Distribution of esters and substrates between cells and media, UMR 106. Type of series: in vitro ADME, rat. As to conditions: lipid extraction from media and cells separately, HPLC system I. As to the method:
Peaks H2-A and H3-A were obtained and purified as described in Example II. In addition, UMR 106 cells were incubated with 1α,25(OH)2-16-ene-20-epi-D3 and 1α,25(OH)2-16-ene-20-epi-3-epi-D3, as described in Example I.
The lipid extraction was carried out from media and cells separately and together, as described in Example II. HPLC was performed with a Waters System Controller (Model 600E) equipped with a photodiode array detector (Model PDA 990) to monitor UV absorption at 265 nm. A Zorbax SIL 9.4×250 mm column (DuPont, Wilmington, Del.) was used for all straight phase systems. Each lipid extract was analyzed using HPLC system I.

For `C=C1/C(=C\C=C2/CCC[C@]3(C)C([C@H](C)CCCC(C)(C)O)=CCC23)C[C@@H](O)C[C@@H]1O` (stereo partly drawn) [1α,25(OH)2-16-ene-D3], the “amount of less polar fatty acid ester metabolites produced” value (shortened to “amount”) in the series with UMR 106 cells [1] is listed as “production of the less polar fatty acid ester metabolites”. For `C=C1/C(=C\C=C2/CCC[C@]3(C)C([C@@H](C)CCCC(C)(C)O)=CCC23)C[C@@H](O)C[C@@H]1O` (stereo partly drawn) [1α,25(OH)2-16-ene-20-epi-D3], the “amount” value in the series on UMR 106 cells [1] is reported as “a greater increase in the amount of the less polar fatty acid ester metabolites”. The “distribution between cells and media” value with UMR 106 cells [2] is listed as “distributed primarily in the media”.

For the compound `C=C1/C(=C\C=C2/CCC[C@]3(C)C([C@@H](C)CC#CC(C)(C)O)=CCC23)C[C@@H](O)C[C@@H]1O` (stereo partly drawn) [1α,25(OH)2-16-ene-23-yne-D3], the “amount” value in the series on UMR 106 cells [1] is “reduced”.

As to `C=C1/C(=C\C=C2/CCC[C@]3(C)C([C@H](C)CCCC(C)(C)O)=CCC23)C[C@H](O)C[C@@H]1O` (stereo partly drawn) [1α,25(OH)2-16-ene-3-epi-D3], in the series with UMR 106 cells [1], the “amount” value is recorded as “slightly greater amounts of one of the less polar metabolites”. For `C=C1/C(=C\C=C2/CCC[C@]3(C)C([C@@H](C)CCCC(C)(C)O)=CCC23)C[C@H](O)C[C@@H]1O` (stereo partly drawn) [1α,25(OH)2-16-ene-20-epi-3-epi-D3], the “amount” value in the series on UMR 106 cells [1] is recorded as “enhanced even further”. For the same compound, the “distribution between cells and media” value in the series with UMR 106 cells [2] is on record as “distributed primarily in the media”.

Values taken from patent US20020045606A1, “Esters of vitamin D3 and uses thereof” (priority 1999, published 2002).
